A short description of this data set: physchem. The note with it: 37 °C. The source says:
However, there has been no report yet for an intraoral quickly disintegrating tablet containing a slightly soluble pharmaceutical agent having an improved solubility as such and for a method of manufacturing the tablet. One of the reasons therefor is that it is difficult for satisfying all of the requirements for improving the solubility of the slightly soluble pharmaceutical agent, for a quick disintegration in the mouth and for ensuring a good touch on the tongue upon disintegration. Many of the pharmaceutical ingredients acting as a cyclic GMP phosphodiesterase inhibitor are the compounds having a relatively low solubility and are within a category of the slightly soluble pharmaceutical agents.

One may read the solubility as the dissolved amount per volume that the medium holds.

Structures are written as SMILES.

Consider `COc1ccc(CNc2nnc(N3CCC(O)CC3)c3ccc(C#N)cc23)cc1Cl.Cl` [formula (IX), 4-(3-chloro-4-methoxybenzyl)amino-6-cyano-1-(4-hydroxypiperidino)phthalazine hydrochloride], for which the solubility reads like this: (pH 1.2, simulated gastric fluid) 130 µg/mL; (pH 6.8, aqueous buffer) 6.3 µg/mL.

(Values after US6743443B1, “Tablets immediately disintegrating in the oral cavity” (Eisai Co., Ltd., priority 1998, dated 2004).)
